# pIC50: −log10 of the molar value. Read-outs that look alike come from different tables or passages of the source.
# Experiments:
# M. fortuitum = assay: Kirby-Bauer disk diffusion susceptibility test; assay type: cell-based; conditions: M. fortuitum; 100 μg/disc; zone of inhibition
# [1] = Cellular viability, CellTiter Glo; assay type: cell-based; conditions: human, read-out: CC50 nM (concentration of drug required to kill 50% of cells)
# Method: (§1) All assays for assessing anti-HIV activity were taken in parallel to determine cellular viability of the culture in the presence or absence of different concentrations of the isolated molecule. It was followed exactly the same methodology as in the anti-HIV assay except with the addition of complete DMEM medium instead of supernatant viral, in the same proportion, and the detection of the viability was performed with the viability detection kit CellTiter Glo (Promega), following manufacturer instructions. Viability is directly proportional to the luciferase activity obtained. All data are expressed as percentage relative to a control with DMSO at the same concentration. Antiviral activity and toxicity curves were performed to the compound at different concentrations.
# MT-2 cells = assay: Cellular viability, CellTiter Glo; assay type: cell-based
# Method: as §1
# PBMCs = assay: Cellular viability, CellTiter Glo; assay type: cell-based; conditions: PBMCs cells
# Method: as §1
# [2] = Cellular viability, CellTiter Glo (Table V, cells not stated); assay type: cell-based; conditions: human, relative to DMSO control
# Method: as §1
# [3] = tested on: HIV virus (NL4.3-Ren) and HIV virus pseudotyped with the envelope of VSV (NL4.3-VSV-Luc); assay: Virus entry test, HIV and VSV-pseudotyped HIV in parallel; assay type: cell-based; conditions: NL4.3-Ren and NL4.3-VSV-Luc in parallel
# [4] = tested on: XGF-G (gG-deficient PRV gIS8); assay type: cell-based, porcine pseudorabies virus (PRV)
# T98G = assay: MTT assay; assay type: cell-based
# Text: This compound has a purple hue.
# All tests are always in triplicate.
# In Table VIII, quantification of the best IC50 is shown (concentration of compound that inhibits 50% of cell growth) using GraphPad Prism program.
# NCI-H1299 = assay: MTT assay; assay type: cell-based; conditions: Homo sapiens, 48 hours
# SK-UT-1 = assay: MTT assay; assay type: cell-based; conditions: Homo sapiens, 48 hours
smiles,measurement,setting,value
"CCCCCC1=NN(C(=O)CCO)OC(CCCCC)C1 (stereo not shown) [Compound, 1-(4,6-dipentyl-5,6-dihydro-2H-1,2,3-oxadiazin-2-yl)-3-hydroxypropan-1-one]","Activity (mm), 100 μg/disc",M. fortuitum,44 mm
same,CC50,[1]; MT-2 cells,2500 to 5000 nM
same,CC50,[1]; PBMCs,2500 to 5000 nM
same,toxicity,MT-2 cells,only in the highest concentrations tested (5 and 10 μM)
same,toxicity,PBMCs,only in the highest concentrations tested (5 and 10 μM)
same,viability at 0.19 µM,[2]; 0.19 μM,114%
same,viability at 0.39 µM,[2]; 0.39 μM,113%
same,viability at 0.78 µM,[2]; 0.78 μM,109%
same,viability at 1.56 µM,[2]; 1.56 μM,96%
same,viability at 3.12 µM,[2]; 3.12 μM,78%
same,viability at 6.25 µM,[2]; 6.25 μM,31%
same,viability at 12.5 µM,[2]; 12.5 μM,7%
same,viability at 25 µM,[2]; 25 μM,4%
same,viability at 50 µM,[2]; 50 μM,2%
same,viability at 100 µM,[2]; 100 μM,0%
same,inhibition of HIV and VSV-pseudotyped HIV (dependence on virus entry),[3],inhibited both viruses with the same potency
same,reduction of the titer,[4],0.7 logarithms
same,concentration at which inhibition is obtained,T98G,50 nM
same,optimal concentration of inhibition,T98G,100 nM
same,pIC50,"T98G; Homo sapiens, 48 hours",6.97
same,pIC50,NCI-H1299,6.72
same,pIC50,SK-UT-1,6.70

# From US11241440B2, “Dihydrooxadiazine compounds for treating infections and cancer” (VALORALIA I MÁS D, SL, priority 2016, dated 2022)
